# In US20250082752A1, “COMPOUNDS, TARGETS, AND METHODS FOR MODULATING LYTIC GRANULE CONVERGENCE IN CYTOTOXIC CELLS TO PROMOTE BYSTANDER KILLING IN CELLULAR THERAPIES” (THE TRUSTEES OF COLUMBIA UNIVERSITY IN THE CITY OF NEW YORK, priority 2022, published 2025):
# “Also recorded” adds a separate entry of the source.
# Columns and labels:
# NK cells = test: Lytic granule dispersion in pretreated NK cells seeded on surfaces coated with activating antibodies; type: cell-based; details: NK cells pretreated at 5 μM for 30 min
# Description: FIGS. 59B-59E are magnified image of marked areas in FIG. 59A focusing on cells with dispersed granule. Perforin staining is shown in green, and alpha-tubulin is staining is shown in red.
# FIGS. 60B-60E are magnified image of marked areas in FIG. 60A focusing on cells with dispersed granule. The position of the granules is indicated by perforin staining.
# FIGS. 61B-61E are magnified image of marked areas in FIG. 61A focusing on cells with dispersed granule. The position of the granules is indicated by perforin staining.
# NK cells were pretreated with N-{1-[(4-chlorophenyl)methyl]piperidin-4-yl}prop-2-enamide (FIG. 56) at […] for 30 min. The treated NK cells were seeded onto surfaces coated with activating antibodies.
# NK cells were pretreated with 1-(prop-2-enamido)-N-[(thiophen-2-yl)methyl]cyclohexane-1-carboxamide (FIG. 57) at 5 μM for 30 min. The treated NK cells were seeded onto surfaces coated with activating antibodies.
# NK cells were pretreated 1-[3-(4-fluorophenyl) prop-2-enoyl]-4-hydroxypyrrolidine-2-carboxylic acid (FIG. 58) at 5 μM for 30 min. The treated NK cells were seeded onto surfaces coated with activating antibodies.
# YTS cells [1] = test: Lytic granule convergence/dispersion in dynein inhibitor-treated YTS cells on an activating glass surface (confocal microscopy); type: cell-based; details: dynein inhibitor vs DMSO, activating glass surface 30 min
# Protocol: (§1) YTS cells were treated with DMSO or one of three different dynein inhibitors (Ciliobrevin-D, Dynapyrazole-A, or Compound 3016) and then incubated on an activating glass surface for 30 min. Cells were fixed, stained for a-tubulin, F-actin, perforin, and DNA (DAPI), and imaged via spinning disc confocal microscopy. Examples of individual cells (top) showing all stains and a broader field (bottom) at lower magnification showing only perforin to give an impression of the degree of granule convergence in a field of cells (FIG. 10A). […] Points show mean+SD of 3 independent experiments measuring >20 cells each.
# This work served as proof-of-concept that influencing positional degranulation can be used to harness the NK cell lytic machinery.
# To identify the best candidates to control lytic granule positioning, a high throughput screen (HTS) for activation-induced lytic granule convergence was developed. This is a novel method that utilizes a simple shape-based approach (a grid based on the a-tubulin defined NK cell footprint and Euclidean distance from the MTOC) to generate an estimated mean granule distance (eMGD) from the MTOC (FIGS. 11A-11C). This approach allows us to quickly screen large numbers of molecular candidates. MGD will be measured in 3D in fixed NK cells activated on an anti-NKp30/anti-CD18 or anti-CD28/anti-CD18 coated glass surface over a range of activation times, conditions, and NK cell types. Cells will be stained to identify the MTOC (for example, pericentrin) and lytic granules (mature perforin). The measured MGD is an indicator of convergence.
# bystander K562 cells = test: Bystander killing by Dynapyrazole A-pretreated YTS cells; type: cell-based; details: YTS cells pretreated with 5 μM for 30 minutes
# Description: The graph is representative of three independently performed biological repeats.
# To assess tumor cell and bystander killing, TheCOS comprises NK cell lines, tumor cell targets, and NK-resistant tumor cell bystanders. LAMP1-mApple-pHluorin-expressing NK cell lines enable visualization of granules (mApple) and degranulation events (pHluorin transition). mTurquoise2 mark susceptible tumor cells, and Citrine mark bystander cells. SYTOX deep red is included in the hydrogel to identify the nuclei of dying cells. A cell positive for Turquoise and SYTOX fluorescence denote a dying tumor cell, whereas a cell positive for Citrine and SYTOX indicate a dying bystander cell. 1×10^5 target tumor cells and 1×10^5 NK cells (for an initial 1:1 tumor to effector ratio)+/−1×10^6 bystander cells are deposited into separate thermally responsive hydrogel layers and then encased in thermally stable hydrogel. This sandwich is then deposited the into our imaging chamber. Prewarmed media is added to collapse the hydrogel layers.
# (§2) YTS cells are treated with 5 μM of Dynapyrazole A for 30 minutes, then washed twice with culture media. Then cells are stimulated either with 721.221 target cells, K562 target cells, or with an activating surface (coverslip coated with anti CD18 and/or anti CD28).
# YTS cells [2] = test: Granule distance to MTOC in Dynapyrazole A-treated YTS cells on a CD28/CD18 activating surface; type: cell-based; details: 5 μM for 30 minutes, washed
# Protocol: as §2
# YTS cells [3] = test: Mean granule distance (MGD) and automated estimated MGD (eMGD) from the MTOC in activated YTS cells; type: cell-based; details: YTS cells activated on glass via CD18/CD28 for 30 minutes, p<0.01
# Description: FIGS. 11A-11H depict exemplary results related to mean granule distance (MGD) and automated estimated mean granule distance (eMGD). FIG. 11A depicts an exemplary high-resolution confocal imaging of lytic granules (labeled by perforin) and tubulin, which allows for automated intensity threshold-based identification of granules as shown in FIG. 11B (outlines indicate for granules and the microtubule-organizing center (MTOC)). FIG. 11C depicts the equation for calculating […] using x and y coordinates of each granule relative to the MTOC. […] FIG. 11E is an exemplary image of a fixed NK cell from the screen (labeled with perforin and tubulin) to which the Euclidean method for assessing granule localization relative to a total cell, tubulin-defined footprint of FIG. 11F can be applied. eMGD is then calculated using a Matlab script and the formula shown in FIG. 11G. […]
# To identify the best candidates to control lytic granule positioning, a high throughput screen (HTS) for activation-induced lytic granule convergence was developed. […] MGD will be measured in 3D in fixed NK cells activated on an anti-NKp30/anti-CD18 or anti-CD28/anti-CD18 coated glass surface over a range of activation times, conditions, and NK cell types. […] The measured MGD is an indicator of convergence. […]
# YTS cells [4] = test: Number of MTOC (alpha-tubulin hyper densities) in YTS cells treated with PLK4 inhibitors; type: cell-based; details: 5 days, Centrinone 5 nM or CFI400495 50 nM
# Protocol: (§3) Centrinone and CFI400495 are high affinity and selective PLK4 inhibitors that induce depletion of the centrosome and cell cycle arrest. YTS cells were treated for 5 days with Centrinone 5 nM or CFI400495 50 nM. […] For this experiment, 5×10^5 cells/ml YTS cells were incubated during 5 days Centrinone 5 nM or CFI400495 50 nM, every 24 hours the media were replaced with fresh media containing similar amounts of the drug. On day 5, cells were assessed by microscopy for gamma-tubulin or alpha-tubulin.
# YTS cells [5] = test: Confocal microscopy of granule dispersion in YTS cells after Centrinone or CFI400495; type: cell-based; details: YTS cells after treatment with Centrinone or CFI400495
# Protocol: as §3
# YTS cells [6] = test: CD107a degranulation of treated YTS cells after conjugation with 721.221 target cells; type: cell-based; details: 5 days, Centrinone 5 nM or CFI400495 50 nM
# Protocol: CD107a (also known as LAMP-1) is the standard to measure the process of degranulation. The more CD107a is expressed on the surface of the cell after stimulation, the more granules have been released. This is limited to the immunological synapse, in part secondary to the convergence process. CD107a upregulation is measured via flow cytometry after PMA/lonomycin activation and can be measured following target cell conjugation. […] The latter requires synapse formation and engagement of receptors for downstream activation signaling. Differences in results between these two approaches (target cell conjugation versus PMA/lonomycin) map the candidate's impact to early (synapse formation and signaling) or late (mechanics of) degranulation.
# as §3
# YTS cells [7] = test: Golgi fragmentation and granule dispersion in LPA-stimulated YTS cells; type: cell-based; details: 20 μM LPA for two hours, sodium salt
# Protocol: One way to induce the Golgi outpost formation through elongation and fission, is using LPA, which is predicted to activate a pathway dependent on transforming protein RhoA and effectively induce the formation of Golgi Outpost. […] The cells were also tested for Cr-51 (FIG. 14C). […] This dispersion was thus increased in quantity and spread on the GCC2 KO cells.
# NK cell [8] = test: Durability/reversibility of deconvergence after the inhibitor is removed from media; type: cell-based; details: NK cell activation on activating glass surface at different times after removal from media
# Protocol: as §1
# Reversibility time for convergence is determined by activating small molecule inhibitor pre-treated NK cells on anti-NKp30/anti-CD18-coated or anti-CD28/anti-CD18 glass surfaces in the absence of the compound of interest. In short-term live-cell experiments, cells are labeled with lysotracker and fluorescent protein-conjugated tubulin; for longer term experiments, the more durable lytic granule label, LAMP1-mApple, is used. The efficiency of non-directional degranulation will be measured with the previously disclosed LAMP1-pHluorin cell line, which marks the lytic granule pH change that accompanies degranulation. […]
# NK cell [9] = details: previous work, cited from earlier work
compound,measurement,setting,value
"C=CC(=O)NC1CCN(Cc2ccc(Cl)cc2)CC1 [Compound 5814, N-{1-[(4-chlorophenyl)methyl]piperidin-4-yl}prop-2-enamide]",lytic granule dispersion,NK cells,induce lytic granule dispersion; also recorded: lytic granule dispersion induced
"O=C(O)C1CC(O)CN1C(=O)C=Cc1ccc(F)cc1 (stereo not shown) [Compound 3977, 1-[3-(4-fluorophenyl)prop-2-enoyl]-4-hydroxypyrrolidine-2-carboxylic acid]",lytic granule dispersion,NK cells,induce lytic granule dispersion; also recorded: lytic granule dispersion induced
"N#Cc1c(C2(c3ccc(Cl)cc3)CC2)nn2c1[nH]c(=O)c1cc(I)ccc12 [Dynapyrazole A, 2-[1-(4-Chlorophenyl)cyclopropyl]-4,5-dihydro-7-iodo-5-oxopyrazolo[1,5-a]quinazoline-3-carbonitrile]",lytic granule convergence / dispersion,YTS cells [1]; listed as Dynapyrazole-A,lytic granule dispersion
same,lytic granule convergence / dispersion,YTS cells [1]; listed as dynapyrazole-A,highly effective in preventing lytic granule convergence
same,killing of bystander K562 cells,bystander K562 cells,kill bystander K562 cells
same,killing of bystander K562 cells,bystander K562 cells; listed as Dynapyrazole-A,kill bystander K652 cells
same,lytic granule dispersion (granule distance to MTOC),YTS cells [2],induces lytic granule dispersion
same,lytic granule dispersion (granule distance to MTOC),YTS cells [2]; listed as Dynapyrazole-A,high lytic granule dispersion
same,"estimated mean granule distance (eMGD), change vs DMSO",YTS cells [3]; GE InCell Analyzer,Increase
same,"mean granule distance (MGD), change vs DMSO",YTS cells [3]; confocal microscope,Increase
"COc1c(Nc2cc(C)[nH]n2)nc(Sc2ccc(S(=O)(=O)Cc3cccc([N+](=O)[O-])c3F)cc2F)nc1N1CCOCC1 [Centrinone, 2-[[2-Fluoro-4-[[(2-fluoro-3-nitrophenyl)methyl]sulfonyl]phenyl]thio]-5-methoxy-N-(5-methyl-1H-pyrazol-3-yl)-6-(4-morpholinyl)-4-pyrimidinamine]",number of MTOC (alpha Tubulin hyper densities),YTS cells [4],increase number of mTOC
same,granule dispersion (confocal microscopy images),YTS cells [5],more disperse granules
same,degranulation (CD107a expression),YTS cells [6],increases degranulation
1-Oleoyl lysophosphatidic acid sodium salt [LPA],Golgi fragmentation,YTS cells [7],increase in Golgi fragments; also recorded: Golgi fragmentation
same,granule dispersion / convergence,YTS cells [7],blocks convergence; also recorded: granule dispersion
"C=CC(=O)NC1(C(=O)NCc2cccs2)CCCCC1 [Compound 7779, 1-(prop-2-enamido)-N-[(thiophen-2-yl)methyl]cyclohexane-1-carboxamide]",lytic granule dispersion,NK cells,induce lytic granule dispersion; also recorded: lytic granule dispersion induced
"N#CC(C(=O)c1ccc(Cl)cc1Cl)=C1NC(=O)c2ccc(Cl)cc2N1 [Ciliobrevin D, 2-(7-chloro-4-oxo-3,4-dihydroquinazolin-2 (1H)-ylidene)-3-(2,4-dichlorophenyl)-3-oxopropanenitrile]",lytic granule convergence / dispersion,YTS cells [1],lytic granule dispersion
same,lytic granule convergence / dispersion,YTS cells [1]; listed as CIL-D,highly effective in preventing lytic granule convergence
same,durability of deconvergence after inhibitor removed from media,NK cell [8],"Neither inhibitor, however, promotes sustained deconvergence"
same,durability of deconvergence after inhibitor removed from media,NK cell [8]; listed as CIL-D,quickly reversible
same,killing of bystander cells,NK cell [9]; UGATm and other single cell assays,promoted killing of bystander cells
same,inhibition of lytic granule convergence (previously used),NK cell [9],inhibit lytic granule convergence
